{"source": "patent US20240067600A1", "about": "“SMALL MOLECULE INHIBITORS OF THE MITOCHONDRIAL PERMEABILITY TRANSITION PORE (mtPTP)” (UNIVERSITY OF KANSAS, priority 2014, published 2024)", "format_in_all_cases": "in vivo", "key": {"[1]": {"system": "exon 9 col6a1 morphant zebrafish", "assay": "Spontaneous coiling of exon 9 col6a1 morphant zebrafish embryos", "conditions": "5 and 10 μM in fish water from 21 hpf; read at 24 hpf", "procedure": "(§1) Zebrafish and embryo maintenance. Adult zebrafish were maintained in the facility of the University of Padova containing aerated, 28.5° C.-conditioned saline water according to standard protocols. Fish were kept under a 14 h light-10 h dark cycle. For mating, males and females were separated in the late afternoon, and were freed to start courtship the next morning, which ended with egg deposition and fecundation. Eggs were collected, washed with fish water (0.5 mM NaH2PO4, 0.5 mM NaHPO4, 0.2 mg/L methylene blue, 3 mg/L instant ocean) and embryos were maintained at 28.5° C. All protocols and manipulations with zebrafish were performed as described in C. B. Kimmel, W. W. Ballard, S. R. Kimmel, B. Ullmann, T. F. Schilling, Dev. Dyn. […]\n(§2) Motor activity. Spontaneous coiling rates were recorded by observing the number of coiling events in 15 s for single embryos at 24 hpf using light microscopy. Touch-evoked escape response was measured at 48 hpf by observing the ability of larvae to escape after touching the body with a little tip. […]\n(§3) Statistical analysis. Differences between control and compound treated samples were determined by one-way ANOVA test with Bonferroni correction using GraphPad Prism (version 5.1 for Windows). […] For FIG. 3, the total number of embryos used is n=35 for each condition; *p<0.05, ***p<0.001, as determined by χ^2 test and oneway ANOVA with Bonferroni correction."}, "[2]": {"system": "exon 9 col6a1 morphant zebrafish", "assay": "Touch-evoked escape response of exon 9 col6a1 morphant zebrafish embryos", "conditions": "5 and 10 μM in fish water from 21 hpf; read at 48 hpf", "procedure": "as §1, §2, §3"}, "[3]": {"system": "exon 9 col6a1 morphant zebrafish", "assay": "Muscle birefringence assay in exon 9 col6a1 morphant zebrafish embryos", "procedure": "as §1, with “C.” for “C. B. Kimmel, W. W. Ballard, S. R. Kimmel, B. Ullmann, T. F. Schilling, Dev. Dyn.”\nBirefringence assay. Muscle birefringence was measured at 48 hpf on tricaine-anesthetized embryos by taking advantage of muscle fiber anisotropy. It was measured using two polarizing filters on a Leica M165FC stereomicroscope. Briefly, anesthetized embryos were placed on a glass slide, and muscle light refraction was analyzed by using two polarizing filters. […] Integrated area of birefringence was calculated by using ImageJ software, as disclosed in J. Berger, T. Sztal, P. D. Currie, Biochem. Biophys. […]\nStatistical analysis. Differences between control and compound treated samples were determined by one-way ANOVA test with Bonferroni correction using GraphPad Prism (version 5.1 for Windows). […]"}}}
{"compound": "Cc1c(Cl)cccc1NC(=O)c1cc(-c2ccc(F)c(O)c2)on1", "note": "[compound 60, N-(3-Chloro-2-methylphenyl)-5-(4-fluoro-3-hydroxyphenyl)isoxazole-3-carboxamide]", "values": [{"measurement": "motor function: spontaneous coiling events (FIG. 1)", "setting": "[1]", "result": "dramatic improvement in motor function"}, {"measurement": "motor function: touch-evoked response (FIG. 2)", "setting": "[2]", "result": "dramatic improvement in motor function"}, {"measurement": "muscle defects by muscle birefringence (FIG. 3)", "setting": "[3]; 5 and 10 μM in fish water from 21 hpf, read at 48 hpf", "result": "largely ameliorated"}, {"measurement": "total birefringence scores", "setting": "[3]; 48 hpf, ANOVA, p<0.05", "result": "significant recovery of muscle defects"}]}
